Source: PubChem BioAssay AID248 (DTP/NCI, 2004)
Several values for one entry are separate records, joined by “and”; a condition that tells them apart may be missing. Identical values can stand only once. Toxic doses and inconclusive results are not listed. Rule as the data show it: active = T/C of 150% or more; inactive = T/C below 125%.

Tested on: L1210 leukemia ip in BDF1 mice, survival T/C
Experiment: NCI In Vivo Anticancer Drug Screen. Data for tumor model L1210 Leukemia (intraperitoneal) in B6D2F1 (BDF1) mice
Details: endpoint: mean survival time, higher = longer survival
Method in brief: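 Value reflects the ratio of survival in compound-treated mice to survival in vehicle-treated controls, with both groups carrying the same transplanted tumor.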

[1] = dose: 100.0 mg/kg/injection, schedule: Q04DX002 (ip), vehicle: saline with Tween-80
[2] = dose: 200.0 mg/kg/injection, schedule: Q04DX002 (ip), vehicle: saline with Tween-80
[3] = dose: 400.0 mg/kg/injection, schedule: Q04DX002 (ip), vehicle: saline with Tween-80
[4] = dose: 200.0 mg/kg/injection, schedule: Q04DX002 (ip), vehicle: Klucel (hydroxypropylcellulose) (HPC)
[5] = dose: 100.0 mg/kg/injection, schedule: Q04DX003 (ip), vehicle: saline with Tween-80
[6] = dose: 200.0 mg/kg/injection, schedule: Q04DX003 (ip), vehicle: saline with Tween-80
[7] = dose: 400.0 mg/kg/injection, schedule: Q04DX003 (ip), vehicle: saline with Tween-80
[8] = dose: 50.0 mg/kg/injection, schedule: Q04DX002 (ip), vehicle: saline with Tween-80
[9] = dose: 12.5 mg/kg/injection, schedule: Q01DX009 (ip), vehicle: saline with Tween-80
[10] = dose: 25.0 mg/kg/injection, schedule: Q01DX009 (ip), vehicle: saline with Tween-80

Measured: T/C

CC(=O)OC(C)c1ccc(Cl)cc1 (stereo unspecified)
inactive: [1] 101 % of control | [2] 97 % of control | [3] 93 % of control

NNC(=S)Nc1cccc2ccccc12
inactive: dose: 75.0 mg/kg/injection, schedule: Q01DX001 (ip), vehicle: carboxymethylcellulose (CMC) 93 % of control | dose: 150.0 mg/kg/injection, schedule: Q01DX001 (ip), vehicle: carboxymethylcellulose (CMC) 93 % of control

Cc1nc(N)[nH]c(=O)c1CCCNC(=O)c1cccc(CBr)c1
inactive: dose: 50.0 mg/kg/injection, schedule: Q01DX001 (ip), vehicle: Klucel (hydroxypropylcellulose) (HPC) 101 % of control | dose: 100.0 mg/kg/injection, schedule: Q01DX001 (ip), vehicle: Klucel (hydroxypropylcellulose) (HPC) 100 % of control | [4] 102 % of control

NC1=C(Cl)C(=O)C(N)=C(Cl)C1=O
inactive: [5] 98 % of control | [6] 98 % of control | [7] 88 % of control

CCOC(=O)/C=C1\CCCc2ccc(Cl)cc21
inactive: [8] 111 % of control | [1] 101 % of control and 104 % of control | [2] 101 % of control | [3] 101 % of control

O=C1NC(c2ccccc2)(c2ccccc2)CN1CCO
inactive: dose: 100.0 mg/kg/injection, schedule: Q01DX001 (ip), vehicle: saline with Tween-80 95 % of control | dose: 200.0 mg/kg/injection, schedule: Q01DX001 (ip), vehicle: saline with Tween-80 95 % of control | dose: 400.0 mg/kg/injection, schedule: Q01DX001 (ip), vehicle: saline with Tween-80 93 % of control

COc1ccc(C(=O)CC2CCCC(CC(=O)c3ccc(OC)cc3)N2C)cc1 (stereo unspecified)
inactive: dose: 75.0 mg/kg/injection, schedule: Q01DX001 (ip), vehicle: other 98 % of control | dose: 150.0 mg/kg/injection, schedule: Q01DX001 (ip), vehicle: other 90 % of control

Cc1ccc(N2C(=O)CC(c3ccccc3)C2C(=O)O)cc1 (stereo unspecified)
inactive: dose: 100.0 mg/kg/injection, schedule: Q04DX002 (ip), vehicle: Klucel (hydroxypropylcellulose) (HPC) 100 % of control | [4] 103 % of control | dose: 400.0 mg/kg/injection, schedule: Q04DX002 (ip), vehicle: Klucel (hydroxypropylcellulose) (HPC) 103 % of control

CCC1/C=C/C=C/CC(C)C(O)C(C)(O)C(=O)C(C)C(O)C(C)C(=O)C(C)C(O)C(C)/C=C/C(=O)OC2C(C)C(CC1)OC1(OC(CC(C)O)C(C)CC1=O)C2C (stereo unspecified) (tested in a mixture with another compound)
inactive: dose: 0.08 mg/kg/injection, schedule: Q01DX009 (ip), vehicle: saline 102 % of control | dose: 0.16 mg/kg/injection, schedule: Q01DX009 (ip), vehicle: saline 103 % of control | dose: 0.16 mg/kg/injection, schedule: Q04DX003 (ip), vehicle: saline 117 % of control | dose: 0.31 mg/kg/injection, schedule: Q01DX009 (ip), vehicle: saline 102 % of control | dose: 0.32 mg/kg/injection, schedule: Q01DX001 (ip), vehicle: saline 118 % of control | dose: 0.32 mg/kg/injection, schedule: Q01DX009 (ip), vehicle: saline 113 % of control | dose: 0.32 mg/kg/injection, schedule: Q04DX003 (ip), vehicle: saline 117 % of control | dose: 0.44 mg/kg/injection, schedule: Q01DX Z (ip), vehicle: other 114 % of control | dose: 0.44 mg/kg/injection, schedule: Q01DX Z (ip), vehicle: saline 100 % of control | dose: 0.47 mg/kg/injection, schedule: Q01DX009 (ip), vehicle: saline with Tween-80 120 % of control | dose: 0.47 mg/kg/injection, schedule: Q01DX009 (ip), vehicle: saline 101 % of control | dose: 0.63 mg/kg/injection, schedule: Q01DX009 (ip), vehicle: saline 104 % of control | dose: 0.66 mg/kg/injection, schedule: Q01DX Z (ip), vehicle: other 122 % of control | dose: 0.66 mg/kg/injection, schedule: Q01DX Z (ip), vehicle: saline 96 % of control | dose: 0.7 mg/kg/injection, schedule: Q01DX009 (ip), vehicle: saline 102 % of control | dose: 0.8 mg/kg/injection, schedule: Q01DX Z (ip), vehicle: methylcellulose (MC) 110 % of control | dose: 1.0 mg/kg/injection, schedule: Q01DX Z (ip), vehicle: saline 109 % of control and 116 % of control | dose: 1.2 mg/kg/injection, schedule: Q01DX Z (ip), vehicle: methylcellulose (MC) 106 % of control | dose: 1.25 mg/kg/injection, schedule: Q01DX009 (ip), vehicle: saline 102 % of control | dose: 1.5 mg/kg/injection, schedule: Q01DX Z (ip), vehicle: other 115 % of control | dose: 1.5 mg/kg/injection, schedule: Q01DX Z (ip), vehicle: saline 102 % of control and 118 % of control | dose: 1.8 mg/kg/injection, schedule: Q01DX Z (ip), vehicle: methylcellulose (MC) 106 % of control | dose: 2.5 mg/kg/injection, schedule: Q01DX009 (ip), vehicle: saline 96 % of control | dose: 2.6 mg/kg/injection, schedule: Q01DX001 (ip), vehicle: saline 112 % of control | dose: 2.7 mg/kg/injection, schedule: Q01DX Z (ip), vehicle: methylcellulose (MC) 107 % of control | dose: 4.0 mg/kg/injection, schedule: Q01DX001 (ip), vehicle: saline 117 % of control | dose: 4.0 mg/kg/injection, schedule: Q01DX Z (ip), vehicle: methylcellulose (MC) 102 % of control | dose: 5.0 mg/kg/injection, schedule: Q01DX009 (ip), vehicle: saline 110 % of control | dose: 6.0 mg/kg/injection, schedule: Q01DX001 (ip), vehicle: saline 123 % of control | dose: 8.0 mg/kg/injection, schedule: Q01DX Z (ip), vehicle: methylcellulose (MC) 92 % of control | dose: 10.0 mg/kg/injection, schedule: Q01DX009 (ip), vehicle: saline 124 % of control

CC(C)NCCOC(=O)c1ccc(N)cc1
inactive: dose: 75.0 mg/kg/injection, schedule: Q01DX001 (ip), vehicle: saline 102 % of control | dose: 150.0 mg/kg/injection, schedule: Q01DX001 (ip), vehicle: saline 105 % of control

CC1=CC(=O)C(C(=O)CC(O)(C(F)(F)F)C(F)(F)F)C(=O)O1 (stereo unspecified)
inactive: [9] 92 % of control | [10] 103 % of control | dose: 50.0 mg/kg/injection, schedule: Q01DX009 (ip), vehicle: saline with Tween-80 88 % of control

CCCCCC(=O)Oc1c(C(C)CC)cc([N+](=O)[O-])cc1[N+](=O)[O-] (stereo unspecified)
inactive: dose: 6.25 mg/kg/injection, schedule: Q01DX009 (ip), vehicle: saline with Tween-80 111 % of control | [9] 88 % of control | [10] 90 % of control | dose: 25.0 mg/kg/injection, schedule: Q04DX002 (ip), vehicle: saline with Tween-80 89 % of control

N#CCCNC(=S)Nc1ccccc1
inactive: dose: 25.0 mg/kg/injection, schedule: Q01DX Z (ip), vehicle: methylcellulose (MC) 102 % of control | dose: 50.0 mg/kg/injection, schedule: Q01DX Z (ip), vehicle: methylcellulose (MC) 101 % of control

CC(=O)OC1C=C2CCCCC2(C)CC1 (stereo unspecified)
inactive: [8] 96 % of control | [1] 96 % of control | [2] 111 % of control

Cn1c2c(c3ccccc31)=NN1CCN=C1N=2
inactive: dose: 6.25 mg/kg/injection, schedule: Q04DX002 (ip), vehicle: saline 107 % of control | dose: 12.5 mg/kg/injection, schedule: Q04DX002 (ip), vehicle: saline 103 % of control

O=C(O)c1cc(O)[nH]c(=O)c1
inactive: [5] 102 % of control | [6] 91 % of control | [7] 94 % of control

O=[N+]([O-])c1ccc2nc(NCCCO)c3ccccc3c2c1
inactive: dose: 100.0 mg/kg/injection, schedule: Q04DX003 (ip), vehicle: Klucel (hydroxypropylcellulose) (HPC) 120 % of control | dose: 200.0 mg/kg/injection, schedule: Q04DX003 (ip), vehicle: Klucel (hydroxypropylcellulose) (HPC) 124 % of control | dose: 400.0 mg/kg/injection, schedule: Q04DX003 (ip), vehicle: Klucel (hydroxypropylcellulose) (HPC) 96 % of control
